Reference: patent US20230220047A1, “PEPTIDES FOR TREATMENT OF SEPSIS AND CANCER” (NORWEGIAN UNIVERSITY OF SCIENCE AND TECHNOLOGY (NTNU), priority 2020, published 2023)
Entries after “also recorded” stand apart in the source; their conditions may differ.

Assays:
[1] = system: IH-1 multiple myeloma cells; assay: CellTiter-Glo cell viability assay, IH-1; assay type: cell-based, human; conditions: IH-1, 10 μM, 48 h
Method: Minor effects on the proliferation of the IH-1 and RPMI 8226 cell lines are seen. Cells were seeded at the level shown (left-hand bar of each set) then incubated in medium containing water, 10 μM penetratin or 10 μM P7-A4-Pen for 48 hr (except for INA-6 cells, which were incubated with 12.5 μM penetratin or 12.5 μM P7-A4-Pen). The number of viable cells was detected based on quantitation of ATP by luminescent signal in correlation to a standard curve prepared for each cell line. Results are based on 3-5 biological replicates for each condition, error bars show standard deviation of mean.
Multiple myeloma cells JJN-3 (DSMZ (Germany) no. ACC 541), ANBL-6 (Cellosaurus accession number CVCL_5425, obtained from Dr Diane Jelinek, Mayo Clinic, Rochester, Minn.), INA-6 (Cellosaurus accession number CVCL_5209, obtained from Dr M. Gramatzki, University of Erlangen-Nurnberg, Erlangen, Germany), RPMI-8226 (ATCC CCL-155), and IH-1 (Cellosaurus accession number CVCL_WZ44, established from the pleural effusion of a myeloma patient by Myeloma research group, IKOM, NTNU, Trondheim, Norway) were grown in RPMI-1640 (Sigma-Aldrich Norway, Oslo, Norway) supplemented with 100 nM penicillin/streptomycin and 10% FCS, and for ANBL-6, IH-1 and INA-6 cells 2 ng/ml recombinant IL-6 (Gibco, Thermo Fisher Scientific, Waltham, Mass., USA). […]

[2] = system: TLR4; assay: Western blot of LPS signalling in murine immortalized BMDMs; assay type: cell-based, mouse; conditions: murine macrophages, 10 μM
Method: Western blot analysis of lysates from cells pretreated with media containing controls (water, DMSO or 10 μM control peptide C3-Pen) or P7-Pen peptide for 30 min before stimulation with LPS (K12 LPS, 100 ng/ml) for designated time periods.
Protein pellets were dissolved by heating protein pellets for 10 min at 95° C. in buffer containing 4 M urea, 1 SDS (Sigma) and NuPAGE® LDS Sample Buffer (4×) (Thermo Fisher Scientific). Otherwise, lysates were made using 1× RIPA lysis buffer (150 mM NaCl, 50 mM TrisHCl (pH 7.5), 1% Triton X100, 5 mM EDTA, protease inhibitors, phosphatase inhibitors). For Western blot analysis we used pre-cast protein gels NuPAGE™ Novex™ and iBlot Transfer Stacks iBlot Gel Transfer Device (Thermo Fisher Scientific). Proteins were transferred to the membrane by dry-blotting using iBlot® 2 NC Regular/Mini Stacks (Life Technologies) in the iBlot 2 Dry Blotting System (Life Technologies). After secondary antibody incubation, membranes were washed and incubated with HRP substrate solution (SuperSignal™ West Femto Maximum Sensitivity Substrate (Thermo Fisher Scientific)). Images were taken using Odyssey® Fc (LI-CORE). Quantification graphs were generated by the analysis of signal intensities for protein bands (protein of interest and endogenous loading control—β-tubulin from the same membrane) using Odyssey software (LI-CORE). Data were normalised to the expression levels of β-tubulin and presented as a relative fold change to the control sample.
In addition, pre-treatment of murine macrophages with P7-Pen inhibited LPS-mediated phosphorylation of TBK1 and IκBα, and decreased phosphorylation of p38 MAPK (FIG. 23).

[3] = biological target: T1, MyD88 signaling complex (Homo sapiens, UniProt P51617+Q99836+Q9NWZ3); assay: IRAK immunoprecipitations from LPS-stimulated human monocytes; assay type: cell-based; conditions: 15 μM, LPS 100 ng/ml
T1 construct: abrogated IRAK1, 2 and 4 recruitment to the MyD88 signaling complex in human monocytes; endogenous in cells; host or cells: primary human monocytes, LPS-stimulated
T1 sequence (Q99836 whole entry): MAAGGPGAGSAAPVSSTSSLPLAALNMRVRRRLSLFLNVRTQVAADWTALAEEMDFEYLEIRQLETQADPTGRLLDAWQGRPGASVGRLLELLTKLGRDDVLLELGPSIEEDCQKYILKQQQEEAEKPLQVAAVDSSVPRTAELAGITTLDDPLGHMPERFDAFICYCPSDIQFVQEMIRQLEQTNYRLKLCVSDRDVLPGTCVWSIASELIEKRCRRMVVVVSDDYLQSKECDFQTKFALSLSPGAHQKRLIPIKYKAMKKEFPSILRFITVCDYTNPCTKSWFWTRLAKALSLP
T1 sequence (P51617 whole entry): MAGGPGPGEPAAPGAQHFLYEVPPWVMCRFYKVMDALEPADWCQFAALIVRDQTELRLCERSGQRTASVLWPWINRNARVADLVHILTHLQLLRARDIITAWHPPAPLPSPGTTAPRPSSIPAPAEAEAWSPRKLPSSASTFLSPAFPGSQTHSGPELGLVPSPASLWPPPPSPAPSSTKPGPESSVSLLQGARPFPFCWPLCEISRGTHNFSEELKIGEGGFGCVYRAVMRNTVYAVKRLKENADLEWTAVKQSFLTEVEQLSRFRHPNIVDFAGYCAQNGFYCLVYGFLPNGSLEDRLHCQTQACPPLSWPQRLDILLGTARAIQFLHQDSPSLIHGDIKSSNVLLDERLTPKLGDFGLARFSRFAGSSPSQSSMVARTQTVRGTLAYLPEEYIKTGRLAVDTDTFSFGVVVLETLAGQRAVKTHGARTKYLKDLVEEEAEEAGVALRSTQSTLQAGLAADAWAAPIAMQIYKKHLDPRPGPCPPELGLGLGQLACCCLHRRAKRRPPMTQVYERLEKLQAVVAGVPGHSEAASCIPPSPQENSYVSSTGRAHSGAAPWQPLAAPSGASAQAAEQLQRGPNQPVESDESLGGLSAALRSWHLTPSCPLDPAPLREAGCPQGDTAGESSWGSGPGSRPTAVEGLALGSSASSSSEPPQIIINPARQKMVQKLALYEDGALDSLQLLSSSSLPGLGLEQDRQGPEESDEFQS
T1 sequence (Q9NWZ3 whole entry): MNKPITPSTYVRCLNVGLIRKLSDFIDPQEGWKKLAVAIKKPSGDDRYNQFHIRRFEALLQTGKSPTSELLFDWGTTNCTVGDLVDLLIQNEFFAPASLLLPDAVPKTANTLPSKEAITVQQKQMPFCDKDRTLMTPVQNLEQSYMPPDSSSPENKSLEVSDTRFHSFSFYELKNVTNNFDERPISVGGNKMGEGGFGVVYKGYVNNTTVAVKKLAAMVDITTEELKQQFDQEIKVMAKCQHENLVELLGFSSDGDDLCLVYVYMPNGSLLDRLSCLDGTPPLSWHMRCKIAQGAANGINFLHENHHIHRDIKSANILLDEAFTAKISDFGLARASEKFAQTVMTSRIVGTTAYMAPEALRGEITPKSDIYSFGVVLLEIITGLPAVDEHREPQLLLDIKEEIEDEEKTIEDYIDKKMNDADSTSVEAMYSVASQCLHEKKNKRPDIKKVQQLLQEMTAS
Method: Cell were pre-treated with Pen or P7-Pen (15 μM) for 30 min before addition of LPS (100 ng/ml) for specified time periods. Precipitations were performed using sheep anti-IRAK4 (A), anti-IRAK1 (B) and anti-IRAK2 (C) polyclonal antibodies covalently bound to magnetic beads, followed by Western blot analysis of lysates and precipitated proteins.
Pre-treatment of monocytes with P7-Pen abrogated recruitment of all tested IRAKs (1,2 and 4) to MyD88 (FIG. 28). This could be achieved by the peptide disrupting the Mal-MyD88 interaction, Mal-IRAK interactions or MyD88-IRAK interactions. Since IL-1R-initiated signalling through the Myddosome complex is not inhibited by the P7 peptide (see above), it is most likely that P7 interferes with Mal-IRAK interactions or the Mal-MyD88 interaction, rather than MyD88-IRAK interactions (since Mal is not involved in IL-1R signaling).

[4] = system: Jurkat cells; assay: Proliferation of Jurkat T cell leukaemia cells; assay type: cell-based, human; conditions: 15 μM or 20 μM, 48 h
Method: Jurkat cells were seeded at 5000 cells/well (as indicated by dotted line) and incubated in medium supplemented with water, penetratin, P7-Pen or P7-N4-Pen. Peptides were included at 15 μM (A) or 20 μM (B). Cells were incubated for 48 hours then counted. […] Results are based on 3 biological replicates, error bars show standard deviation of mean.
SW480 (ATCC CCL-228) and Jurkat (ATCC Clone E6-1; TIB-152) cells were cultured in RPMI 1640 (Sigma-Aldrich, Schnelldorf, Germany) supplemented with 10% heat-inactivated FCS, penicillin/streptomycin (Life Technologies) and 20 mM L-Glutamine. THP-1 cells (ATCC TIB-202) were cultured in RPMI-1640 (high-glucose, ATCC) supplemented with 10% heat inactivated foetal calf serum (FCS), 100 nM penicillin/streptomycin and 5 μM β-mercaptoethanol (Sigma). THP-1 cells were differentiated with 60 ng/ml phorbol 12-myristate 13-acetate (PMA, Sigma) for 72 h, followed by 24 or 48 h in medium without PMA.
The peptides were tested against the SW480 cell line in the presence and absence of LPS.

Row | Substance | cell proliferation [1] | LPS-mediated phosphorylation of TBK1 and IκBα [2] | phosphorylation of p38 MAPK ([2]; LPS) | recruitment of IRAKs (1, 2 and 4) to MyD88 [3] | effect on proliferation of Jurkat cells [4]
1 | Ac-ITVAASVTLTGRQIKIWFQNRRMKWKK-NH2 [Peptide P7-A4-Pen] | Minor effects; also recorded: inhibited cell proliferation | – | – | – | –
2 | Ac-ITVYASVTLTGRQIKIWFQNRRMKWKK-NH2 [Peptide P7-Pen] | – | inhibited | decreased | abrogated | possible anti-proliferative effect; also recorded: clear anti-proliferative effect
